Test results as given in PubChem BioAssay (NCI).
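GI50 marks 50% less growth. TGI: total growth inhibition.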

What was measured:
Assay in all cases: NCI tumour cell line growth inhibition, 384-well format
[1] = tested on: MDA-MB-468 breast
[2] = tested on: HOP-62 NSCLC
[3] = tested on: A498 renal
[4] = tested on: LOX IMVI melanoma
[5] = tested on: HOP-92 NSCLC
[6] = tested on: HL-60(TB) leukemia
[7] = tested on: SF-539 CNS
[8] = tested on: SF-295 CNS
[9] = tested on: HS 578T breast
[10] = tested on: SF-268 CNS
[11] = tested on: KM12 colon
[12] = tested on: MDA-MB-231 breast
[13] = tested on: HT29 colon
[14] = tested on: PC-3 prostate
[15] = tested on: SR leukemia
[16] = tested on: NCI-H522 lung
[17] = tested on: MDA-MB-435 melanoma
[18] = tested on: TK-10 renal
[19] = tested on: OVCAR-5 ovarian
[20] = tested on: OVCAR-8 ovarian
[21] = tested on: RPMI-8226 leukemia
[22] = tested on: DU-145 prostate
[23] = tested on: ACHN renal
[24] = tested on: UACC-62 melanoma
[25] = tested on: HCT-116 colon
[26] = tested on: U251 glioblastoma
[27] = tested on: RXF 393 renal
[28] = tested on: MCF7 breast
[29] = tested on: SK-OV-3 ovarian
[30] = tested on: MOLT-4 leukemia
[31] = tested on: MALME-3M melanoma
[32] = tested on: SK-MEL-28 melanoma
[33] = tested on: OVCAR-4 ovarian
[34] = tested on: BT-549 breast
[35] = tested on: A549 NSCLC
[36] = tested on: COLO 205 colon
[37] = tested on: IGROV1 ovarian
[38] = tested on: NCI-H460 NSCLC
[39] = tested on: T-47D breast
[40] = tested on: NCI-H226 lung
[41] = tested on: SNB-19 CNS
[42] = tested on: HCC-2998 colon
[43] = tested on: NCI-H322M lung
[44] = tested on: CAKI-1 renal
[45] = tested on: NCI-H23 lung
[46] = tested on: EKVX NSCLC
[47] = tested on: OVCAR-3 ovarian
[48] = tested on: SNB-75 CNS
[49] = tested on: SK-MEL-5 melanoma
[50] = tested on: NCI/ADR-RES ovarian
[51] = tested on: M14 melanoma
[52] = tested on: HCT-15 colon
[53] = tested on: SN12C renal
[54] = tested on: UACC-257 melanoma
[55] = tested on: SK-MEL-2 melanoma
[56] = tested on: 786-0 renal
[57] = tested on: CCRF-CEM leukemia
[58] = tested on: SW-620 colon

With CNC(=O)c1cc(COc2nnc(Nc3ccc(Cl)cc3)c3ccoc23)ccn1 the GI50 [1] was 2.29 µM, the TGI [1] was 4.86 µM and the GI50 [2] was 4.89 µM. The TGI [2] was 15.5 µM, the GI50 [3] was 9.38 µM and the TGI [3] was 21.3 µM. The GI50 [4] was 18.6 µM, the TGI [4] was 43.8 µM and the GI50 [5] was 4.23 µM. It also gave a TGI [5] of 14.2 µM, a GI50 [6] greater than 100 µM and a TGI [6] greater than 100 µM. The GI50 [7] was 1.49 µM, the TGI [7] was 3.07 µM and the GI50 [8] was 2.4 µM. The TGI [8] was 5.78 µM, the GI50 [9] was 2.73 µM and the TGI [9] was 8.17 µM. For the same molecule, the GI50 [10] was 3.03 µM, the TGI [10] was 8.04 µM and the GI50 [11] was 3.29 µM. The TGI [11] was 8.84 µM, the GI50 [12] was 4.69 µM and the TGI [12] was 18.3 µM. It also gave a GI50 [13] of 2.4 µM, a TGI [13] of 5.67 µM and a GI50 [14] of 11.3 µM. For the same molecule, the TGI [14] was 25.5 µM, the GI50 [15] was 2.5 µM and the TGI [15] was 4.87 µM. The GI50 [16] was 5.23 µM, the TGI [16] was 17 µM and the GI50 [17] was 19.1 µM. For the same molecule, the TGI [17] was 37.5 µM, the GI50 [18] was 10.3 µM and the TGI [18] was 22.3 µM. For the same molecule, the GI50 [19] was 21.9 µM, the TGI [19] was 40.2 µM and the GI50 [20] was 1.96 µM. It also gave a TGI [20] of 3.68 µM, a GI50 [21] of 14.1 µM and a TGI [21] of 39.9 µM. It also gave a GI50 [22] of 12.4 µM, a TGI [22] of 25.2 µM and a GI50 [23] of 11.1 µM. The TGI [23] was 25.5 µM, the GI50 [24] was 3.51 µM and the TGI [24] was 12.2 µM. The GI50 [25] was 4.08 µM, the TGI [25] was 14.9 µM and the GI50 [26] was 10.2 µM. It also gave a TGI [26] of 21.9 µM, a GI50 [27] of 2.84 µM and a TGI [27] of 8.62 µM. For the same molecule, the GI50 [28] was 4.71 µM, the TGI [28] was 17.6 µM and the GI50 [29] was 2.8 µM. For the same molecule, the TGI [29] was 9.01 µM, the GI50 [30] was 34.8 µM and the TGI [30] was greater than 100 µM. It also gave a GI50 [31] of 5.69 µM, a TGI [31] of 18 µM and a GI50 [32] of 5.17 µM. The TGI [32] was 17.6 µM, the GI50 [33] was 5.31 µM and the TGI [33] was 16.6 µM. For the same molecule, the GI50 [34] was 9.44 µM, the TGI [34] was 21.9 µM and the GI50 [35] was 5.43 µM. It also gave a TGI [35] of 19.1 µM, a GI50 [36] of 20 µM and a TGI [36] of 37.2 µM. It also gave a GI50 [37] of 12.2 µM, a TGI [37] of 26.7 µM and a GI50 [38] of 8.81 µM. The TGI [38] was 21 µM, the GI50 [39] was 15.4 µM and the TGI [39] was 46.9 µM. It also gave a GI50 [40] of 15.2 µM, a TGI [40] of 29.5 µM and a GI50 [41] of 13.1 µM. For the same molecule, the TGI [41] was 26 µM, the GI50 [42] was 11.1 µM and the TGI [42] was 30 µM. The GI50 [43] was 11.9 µM, the TGI [43] was 25.1 µM and the GI50 [44] was 3.38 µM. It also gave a TGI [44] of 11.7 µM, a GI50 [45] of 2.45 µM and a TGI [45] of 5.19 µM. It also gave a GI50 [46] of 13.6 µM, a TGI [46] of 26.8 µM and a GI50 [47] of 14.3 µM. It also gave a TGI [47] of 27.9 µM, a GI50 [48] of 3.09 µM and a TGI [48] of 11 µM. The GI50 [49] was 8.37 µM, the TGI [49] was 20.7 µM and the GI50 [50] was 8.44 µM. It also gave a TGI [50] of 20.8 µM, a GI50 [51] of 19.3 µM and a TGI [51] of 38.6 µM. It also gave a GI50 [52] of 11.8 µM, a TGI [52] of 27.3 µM and a GI50 [53] of 12.9 µM. It also gave a TGI [53] of 31.7 µM, a GI50 [54] of 7.95 µM and a TGI [54] of 20.8 µM.

CN1CCc2cc3c(cc2C1O)OCO3 (stereo not given) gave a GI50 [1] greater than 100 µM, a TGI [1] greater than 100 µM and a GI50 [2] greater than 100 µM. It also gave a TGI [2] greater than 100 µM, a GI50 [3] greater than 100 µM and a TGI [3] greater than 100 µM. For the same molecule, the GI50 [5] was greater than 100 µM, the TGI [5] was greater than 100 µM and the GI50 [6] was greater than 100 µM. The TGI [6] was greater than 100 µM, the GI50 [7] was greater than 100 µM and the TGI [7] was greater than 100 µM. It also gave a GI50 [8] greater than 100 µM, a TGI [8] greater than 100 µM and a GI50 [9] greater than 100 µM. The TGI [9] was greater than 100 µM, the GI50 [10] was greater than 100 µM and the TGI [10] was greater than 100 µM. For the same molecule, the GI50 [11] was greater than 100 µM, the TGI [11] was greater than 100 µM and the GI50 [12] was greater than 100 µM. For the same molecule, the TGI [12] was greater than 100 µM, the GI50 [13] was greater than 100 µM and the TGI [13] was greater than 100 µM. The GI50 [14] was greater than 100 µM, the TGI [14] was greater than 100 µM and the GI50 [15] was greater than 100 µM. For the same molecule, the TGI [15] was greater than 100 µM, the GI50 [16] was greater than 100 µM and the TGI [16] was greater than 100 µM. It also gave a GI50 [55] greater than 100 µM, a TGI [55] greater than 100 µM and a GI50 [17] greater than 100 µM. For the same molecule, the TGI [17] was greater than 100 µM, the GI50 [18] was greater than 100 µM and the TGI [18] was greater than 100 µM. For the same molecule, the GI50 [19] was greater than 100 µM, the TGI [19] was greater than 100 µM and the GI50 [20] was greater than 100 µM. It also gave a TGI [20] greater than 100 µM, a GI50 [21] greater than 100 µM and a TGI [21] greater than 100 µM. The GI50 [22] was greater than 100 µM, the TGI [22] was greater than 100 µM and the GI50 [23] was greater than 100 µM. For the same molecule, the TGI [23] was greater than 100 µM, the GI50 [24] was greater than 100 µM and the TGI [24] was greater than 100 µM. It also gave a GI50 [26] greater than 100 µM, a TGI [26] greater than 100 µM and a GI50 [27] greater than 100 µM. For the same molecule, the TGI [27] was greater than 100 µM, the GI50 [28] was greater than 100 µM and the TGI [28] was greater than 100 µM. It also gave a GI50 [29] greater than 100 µM, a TGI [29] greater than 100 µM and a GI50 [30] greater than 100 µM. It also gave a TGI [30] greater than 100 µM, a GI50 [31] greater than 100 µM and a TGI [31] greater than 100 µM. For the same molecule, the GI50 [32] was greater than 100 µM, the TGI [32] was greater than 100 µM and the GI50 [33] was greater than 100 µM. It also gave a TGI [33] greater than 100 µM, a GI50 [34] greater than 100 µM and a TGI [34] greater than 100 µM. The GI50 [35] was greater than 100 µM, the TGI [35] was greater than 100 µM and the GI50 [36] was greater than 100 µM. The TGI [36] was greater than 100 µM, the GI50 [37] was greater than 100 µM and the TGI [37] was greater than 100 µM. For the same molecule, the GI50 [38] was greater than 100 µM, the TGI [38] was greater than 100 µM and the GI50 [56] was greater than 100 µM. It also gave a TGI [56] greater than 100 µM, a GI50 [39] greater than 100 µM and a TGI [39] greater than 100 µM. For the same molecule, the GI50 [40] was greater than 100 µM, the TGI [40] was greater than 100 µM and the GI50 [41] was greater than 100 µM. It also gave a TGI [41] greater than 100 µM, a GI50 [42] greater than 100 µM and a TGI [42] greater than 100 µM. It also gave a GI50 [43] greater than 100 µM, a TGI [43] greater than 100 µM and a GI50 [44] greater than 100 µM. It also gave a TGI [44] greater than 100 µM, a GI50 [45] greater than 100 µM and a TGI [45] greater than 100 µM. The GI50 [57] was greater than 100 µM, the TGI [57] was greater than 100 µM and the GI50 [58] was greater than 100 µM. For the same molecule, the TGI [58] was greater than 100 µM, the GI50 [46] was greater than 100 µM and the TGI [46] was greater than 100 µM. The GI50 [47] was greater than 100 µM, the TGI [47] was greater than 100 µM and the GI50 [48] was greater than 100 µM. It also gave a TGI [48] greater than 100 µM, a GI50 [49] greater than 100 µM and a TGI [49] greater than 100 µM. It also gave a GI50 [50] greater than 100 µM, a TGI [50] greater than 100 µM and a GI50 [51] greater than 100 µM. It also gave a TGI [51] greater than 100 µM, a GI50 [52] greater than 100 µM and a TGI [52] greater than 100 µM. The GI50 [53] was greater than 100 µM, the TGI [53] was greater than 100 µM and the GI50 [54] was greater than 100 µM. It also gave a TGI [54] greater than 100 µM.
